# Entries after “also recorded” stand apart in the source; their conditions may differ. Read-outs that look alike come from different tables or passages of the source.
# How the values were obtained:
# [1] = tested on: P. falciparum parasites (W2 clone) chloroquine-resistant; assay: Antiplasmodial activity, anti-HRPII assay; format: cell-based, Plasmodium falciparum; settings: for SI: LC50 (HepG2)/EC50 (P. falciparum); for EC50: P. falciparum W2 clone, 24 h at 37 °C, read-out: EC50; for Antiplasmodial Activity: summarized outcome
# Text: P. falciparum W2 clone was maintained in continuous culture as previously described. […] Prior to testing, the ring-stage parasites were synchronized using sorbitol.
# The test quantification was read at 450 nm on a spectrophotometer (SpectraMax340PC384, Molecular Devices Sunnyvale, CA, USA), and the drug activity was expressed as the half-maximal inhibitory concentration (EC50) compared to the drug-free controls using the curve-fitting software Origin 8.0 (OriginLab Corporation, Northampton, MA, USA).
# in vitro = format: cell-based; settings: human
# Method: Human hepatocellular carcinoma (HepG2) and Chinese Hamster Ovary (CHO-K1) cells obtained from the American Type Culture Collection (Manassas, VA, USA) were cultured in Eagle’s medium (MEM, Gibco®, Waltham, MA, USA) containing 10% fetal bovine serum (FBS) plus 100 µg/mL streptomycin and 100 µg/mL penicillin at 37 °C in a 5% CO2 atmosphere. Logarithmic-phase cells were used in all the experiments.
# Fresh HepG2 and CHO-K1 cells were seeded at a density of 1 × 10^4/well. […] Briefly, after treatment, the culture medium was replaced by 90 μL fresh culture medium and 10 μL WST-1 reagent and incubated at 37 °C and 5% CO2 for 3 h. The absorbance was then measured at 440 nm according to the kit protocol.
# [2] = tested on: trypomastigote forms of T. cruzi (Y strain); assay: Trypanocidal activity on bloodstream trypomastigotes; format: cell-based, Trypanosoma cruzi; settings: for EC50: Trypanosoma cruzi, bloodstream trypomastigotes, Y strain, 24 h at 37 °C
# Method: Bloodstream trypomastigote forms (BT) of the Y strain were obtained from infected albino Swiss mice at the peak of parasitemia, isolated by differential centrifugation and resuspended in DMEM to a parasite concentration of 10^7 cells/mL in the presence of 10% of mouse blood. This suspension (100 µL) was added in the same volume of 13 (a–d) and 14 (a–d) previously prepared at twice the desired final concentrations.
# [3] = tested on: Salmonella enterica serovar Typhimurium TA98; assay: Salmonella/microsome assay, TA98
# Method: (§1) Salmonella enterica serovar Typhimurium (S. typhimurium) strains TA97, TA98, TA100, TA104 and TA102 from the authors’ stock were used as described in the mutagenicity assay.
# (§2) To determine the cytotoxic effects, after 30 min pre-incubation, the assay mixtures were diluted in 0.9% NaCl (w/v) to obtain a suspension containing 2 × 10^2 cells/mL. […] The plates were then incubated at 37 °C for 24 h and the colonies counted. All the experiments were conducted in triplicate and were repeated at least twice. Statistical differences between the groups were analyzed by a two-way ANOVA (p < 0.05) and Tukey’s post hoc test.
# [4] = tested on: Salmonella enterica serovar Typhimurium TA104; assay: Salmonella/microsome assay, TA104
# Method: as §1, §2
# CHO-K1 cells = format: cell-based, Chinese Hamster
# Method: (§3) Fresh HepG2 and CHO-K1 cells were seeded at the density of 1 × 10^5 cells/mL into 24-well plates (1 mL/per well). The compounds 13 (a–d) were then added to the medium to final concentrations of 500, 1000 and 2000 µM and incubation continued for 3 h or 24 h. DMSO 10% was used as the negative control, and, BaP (80 µM) for HepG2 and MMC (5 µM) for CHO-K1 were the positive controls. After exposure to the compounds, the cells were incubated for more than 24 h under growth conditions before quantification of the micronuclei and cytotoxicity. The cytogenetic studies were carried out in triplicate as described previously (see [51]). In order to determine the mitotic index and the number of cells with micronuclei, the medium was replaced by a cold methanol-glacial acetic acid (3:1) fixative for 30 min, and the cells then rinsed with distilled water for 2 min and air dried. The fixed cells were stained with 4,6-diamidino-2-phenylindole (DAPI) ([…]) dissolved in McIlvaine buffer (0.1 M citric acid plus 0.2 M Na2HPO4, pH 7.0) for 60 min, washed with McIlvaine buffer for 5 min, briefly rinsed with distilled water and mounted in glycerol. To determine the mitotic index and the number of cells with micronuclei, 1000 cells per well (3000 cells per concentration) were analyzed under a fluorescence microscope. The results for micronuclei were presented as the percentage of cells containing micronuclei in the 3000 cells/concentration group analyzed. Cells that glowed brightly and had homogenous nuclei were considered as having normal phenotypic morphology. Apoptotic nuclei were identified by the condensed chromatin at the periphery of the nuclear membrane or by fragmented nuclear body morphology. Necrotic cells presented chromatin forms with irregularly shaped aggregates, a pyknotic nucleus (shrunken and darkly stained) and cell membrane disruption, with cellular debris spilled into the extracellular milieu. Once again, 3000 cells were counted and the percentage of viable cells was evaluated, discounting apoptotic and necrotic cells. Statistical differences between the groups were analyzed by two-way ANOVA (p < 0.01) and Tukey’s post hoc test.
# HepG2 cells = assay: In vitro micronuclei assay, HepG2; format: cell-based, human; settings: HepG2; 3 h of exposure
# Method: as §3
# [5] = tested on: Salmonella enterica serovar Typhimurium TA100; assay: Salmonella/microsome assay, TA100
# [6] = tested on: S. typhimurium TA97, TA98, TA100, TA102 and TA104 strains; assay: Salmonella/microsome assay, overall outcome; settings: all strains, −S9 and +S9; summarized outcome
# Method: The mutagenicity reverse mutation test was carried out to investigate the potential of 13 (a–d) to induce genetic mutation in S. typhimurium TA97, TA98, TA100, TA102 and TA104 strains. The test was carried out according to the pre-incubation method, both in the absence and presence of a metabolic activation system (4% S9 mix, Aroclor-pre-induced, from Moltox Inc., Boone, NC, USA). DMSO 10% served as the negative control while known mutagens were used as the positive control substances. […] A dose-finding test was carried out with and without the metabolic activation system (S9 mix) for each tester strain.
# For the assays without metabolic activation, 0.5 mL of 0.1 mol/L sodium-phosphate buffer (pH 7.4) was added, and for the assays in the presence of metabolic activation, 0.5 mL S9 mix was mixed with 0.1 mL culture medium (2 × 10^8 cells/mL) plus 0.1 mL of each compound solutions. The mixtures were incubated in a shaker at 37 °C (pre-incubation). After 30 min pre-incubation under light protection, the mixture was added to and mixed with 2 mL top agar containing 0.05 mmol/L L-histidine and D-biotin for the S. typhimurium strains. Each of these was then spread on a minimum glucose agar plate. After the top agar solidified, the plates were incubated at 37 °C for 60–72 h. Each tester strain was assayed in triplicate, and the number of revertant colonies was counted for each tester strain and treatment group [58].
# [7] = Salmonella/microsome assay, TA104; settings: Salmonella enterica serovar Typhimurium
# Method: as §1, §2
# [8] = Plasmodium falciparum, W2, 24 h
smiles,measurement,setting,value
"CC(=O)Nc1ccc(Br)cc1C(F)(F)C(=O)NCC[C@@H]1C[C@H](CC(=O)OC(C)(C)C)OC(C)(C)O1 [Compound 13d, tert-Butyl 2-((4R,6R)-6-(2-(2-(2-acetamido-5-bromophenyl)-2,2-difluoroacetamido)ethyl)-2,2-dimethyl-1,3-dioxan-4-yl)acetate]",SI,[1],Inactive
same,EC50,[1]; [8],> 89 µM
same,Antiplasmodial Activity,[1],No
same,CC50 at 24 h,in vitro,> 1000 µM
same,SI,[2]; LC50 (cardiac cells)/EC50 (trypomastigotes),>21.6
same,EC50,[2],23.2 ± 3.13 µM
same,revertant His+ colonies TA98,"[3]; +S9, 3 µM",28 ± 1
same,revertant His+ colonies TA98,"[3]; +S9, 15 µM",28 ± 5
same,revertant His+ colonies TA98,"[3]; +S9, 30 µM",31 ± 7
same,revertant His+ colonies TA98,"[3]; +S9, 150 µM",34 ± 2
same,revertant His+ colonies TA98,"[3]; +S9, 300 µM",34 ± 4
same,revertant His+ colonies TA98,"[3]; +S9, 1500 µM",35 ± 3
same,revertant His+ colonies TA98,"[3]; −S9, 3 µM",22 ± 7
same,revertant His+ colonies TA98,"[3]; −S9, 15 µM",23 ± 5
same,revertant His+ colonies TA98,"[3]; −S9, 30 µM",25 ± 1
same,revertant His+ colonies TA98,"[3]; −S9, 150 µM",25 ± 1
same,revertant His+ colonies TA98,"[3]; −S9, 300 µM",27 ± 5
same,revertant His+ colonies TA98,"[3]; −S9, 1500 µM",Cytotoxic
same,revertant His+ colonies TA104,"[4]; +S9, 3 µM",490 ± 52
same,revertant His+ colonies TA104,"[4]; +S9, 15 µM",513 ± 19
same,revertant His+ colonies TA104,"[4]; +S9, 30 µM",530 ± 7
same,revertant His+ colonies TA104,"[4]; +S9, 150 µM",541 ± 29
same,revertant His+ colonies TA104,"[4]; +S9, 300 µM",589 ± 5
same,revertant His+ colonies TA104,"[4]; +S9, 1500 µM",591 ± 11
same,revertant His+ colonies TA104,"[4]; −S9, 3 µM",469 ± 65
same,revertant His+ colonies TA104,"[4]; −S9, 15 µM",515 ± 61
same,revertant His+ colonies TA104,"[4]; −S9, 30 µM",570 ± 53
same,revertant His+ colonies TA104,"[4]; −S9, 150 µM",605 ± 61
same,revertant His+ colonies TA104,"[4]; −S9, 300 µM",615 ± 15
same,revertant His+ colonies TA104,"[4]; −S9, 1500 µM",620 ± 31
same,micronuclei formation (genotoxicity),CHO-K1 cells,induced genotoxicity
same,cytotoxicity (survival rate) in micronuclei assay,HepG2 cells,non-cytotoxic
same,micronuclei formation (genotoxicity),HepG2 cells,induced a significant micronuclei formation; also recorded: induced genotoxicity
same,revertant His+ colonies TA100,"[5]; +S9, 3 µM",156 ± 18
same,revertant His+ colonies TA100,"[5]; +S9, 15 µM",166 ± 11
same,revertant His+ colonies TA100,"[5]; +S9, 30 µM",173 ± 1
same,revertant His+ colonies TA100,"[5]; +S9, 150 µM",174 ± 21
same,revertant His+ colonies TA100,"[5]; +S9, 300 µM",181 ± 15
same,revertant His+ colonies TA100,"[5]; +S9, 1500 µM",Cytotoxic
same,revertant His+ colonies TA100,"[5]; −S9, 3 µM",99 ± 4
same,revertant His+ colonies TA100,"[5]; −S9, 15 µM",96 ± 12
same,revertant His+ colonies TA100,"[5]; −S9, 30 µM",93 ± 1
same,revertant His+ colonies TA100,"[5]; −S9, 150 µM",Cytotoxic
same,Bacterial Mutagenicity,[6],Yes
"CC(=O)Nc1ccc(C)cc1C(F)(F)C(=O)NCC[C@@H]1C[C@H](CC(=O)OC(C)(C)C)OC(C)(C)O1 [Compound 13b, tert-Butyl 2-((4R,6R)-6-(2-(2-(2-acetamido-5-methylphenyl)-2,2-difluoroacetamido)ethyl)-2,2-dimethyl-1,3-dioxan-4-yl)acetate]",SI,[1],>70
same,EC50,[1],14.3 ± 0.2 µM
same,EC50,[1]; [8],< 14 µM
same,Antiplasmodial Activity,[1],Yes
same,CC50 at 24 h,in vitro,> 1000 µM
same,EC50,[2],> 500 µM
same,revertant His+ colonies TA98,"[3]; +S9, 3 µM",27 ± 5
same,revertant His+ colonies TA98,"[3]; +S9, 15 µM",27 ± 1
same,revertant His+ colonies TA98,"[3]; +S9, 30 µM",27 ± 5
same,revertant His+ colonies TA98,"[3]; +S9, 150 µM",27 ± 5
same,revertant His+ colonies TA98,"[3]; +S9, 300 µM",39 ± 1
same,revertant His+ colonies TA98,"[3]; +S9, 1500 µM",45 ± 4
same,revertant His+ colonies TA98,"[3]; −S9, 3 µM",18 ± 2
same,revertant His+ colonies TA98,"[3]; −S9, 15 µM",19 ± 3
same,revertant His+ colonies TA98,"[3]; −S9, 30 µM",21 ± 5
same,revertant His+ colonies TA98,"[3]; −S9, 150 µM",22 ± 2
same,revertant His+ colonies TA98,"[3]; −S9, 300 µM",22 ± 2
same,revertant His+ colonies TA98,"[3]; −S9, 1500 µM",26 ± 4
same,CC50 at 30 min,"[7]; S. typhimurium TA104 with S9 mix, LC50 (bacterial cytotoxicity) TA104, presence of S9 mix",> 1500 µM
same,CC50 at 30 min,"[7]; S. typhimurium TA104 without S9 mix, pH 7.4, LC50 (bacterial cytotoxicity) TA104, absence of S9 mix",> 1500 µM
same,revertant His+ colonies TA104,"[4]; +S9, 3 µM",355 ± 12
same,revertant His+ colonies TA104,"[4]; +S9, 15 µM",356 ± 14
same,revertant His+ colonies TA104,"[4]; +S9, 30 µM",421 ± 67
same,revertant His+ colonies TA104,"[4]; +S9, 150 µM",447 ± 45
same,revertant His+ colonies TA104,"[4]; +S9, 300 µM",449 ± 18
same,revertant His+ colonies TA104,"[4]; +S9, 1500 µM",510 ± 13
same,revertant His+ colonies TA104,"[4]; −S9, 3 µM",210 ± 11
same,revertant His+ colonies TA104,"[4]; −S9, 15 µM",267 ± 15
same,revertant His+ colonies TA104,"[4]; −S9, 150 µM",326 ± 13
same,revertant His+ colonies TA104,"[4]; −S9, 300 µM",350 ± 22
same,revertant His+ colonies TA104,"[4]; −S9, 1500 µM",400 ± 11
same,mitotic index,CHO-K1 cells,did not affect the mitotic index
same,cytotoxicity (survival rate) in micronuclei assay,HepG2 cells,statistical enhancement; also recorded: cytotoxic
same,micronuclei formation (genotoxicity),HepG2 cells,statistical enhancement; also recorded: genotoxic; also recorded: only increased micronucleation in HepG2 cells at >2000 µM
same,revertant His+ colonies TA100,"[5]; +S9, 3 µM",179 ± 38
same,revertant His+ colonies TA100,"[5]; +S9, 15 µM",188 ± 23
same,revertant His+ colonies TA100,"[5]; +S9, 30 µM",228 ± 46
same,revertant His+ colonies TA100,"[5]; +S9, 150 µM",260 ± 32
same,revertant His+ colonies TA100,"[5]; +S9, 300 µM",306 ± 60
same,revertant His+ colonies TA100,"[5]; +S9, 1500 µM",333 ± 45
same,revertant His+ colonies TA100,"[5]; −S9, 3 µM",145 ± 11
same,revertant His+ colonies TA100,"[5]; −S9, 15 µM",146 ± 1
same,revertant His+ colonies TA100,"[5]; −S9, 30 µM",145 ± 17
same,revertant His+ colonies TA100,"[5]; −S9, 150 µM",143 ± 40
same,revertant His+ colonies TA100,"[5]; −S9, 300 µM",144 ± 8
same,revertant His+ colonies TA100,"[5]; −S9, 1500 µM",178 ± 10
same,Bacterial Mutagenicity,[6],not mutagenic and no mutagenic potential and No
